Data as given in ChEMBL document CHEMBL1201862, “PubChem BioAssay data set” (2004).
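The compound was tested at five concentrations on cells cultured in 96-well plates, with a 48-hour exposure period. At the GI50, growth is halved.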 Active and inactive are the calls of the source. No stated cut-off is given here; in the data, active = GI50 up to about 1.1 µM and inactive = higher.

What was measured:
Assay in all cases: NCI-60 cell line screen, 48 h
[1] = tested on: UACC-62
[2] = tested on: Malme-3M
[3] = tested on: SK-MEL-5
[4] = tested on: SNB-75
[5] = tested on: ACHN
[6] = tested on: CAKI-1
[7] = tested on: IGROV-1
[8] = tested on: SF-295
[9] = tested on: UACC-257
[10] = tested on: 786-0
[11] = tested on: COLO 205
[12] = tested on: DU-145
[13] = tested on: UO-31
[14] = tested on: RPMI-8226
[15] = tested on: MDA-N
[16] = tested on: K562
[17] = tested on: M14
[18] = tested on: Hs-578T
[19] = tested on: BT-549

Measured: GI50

N#C/C(=C\c1cccc(Br)c1)c1nc2ccccc2c(=O)[nH]1
inactive: [1] 76.2 µM | [2] > 100 µM | [3] > 100 µM | [4] 17.7 µM | [5] 54.7 µM | [6] > 100 µM | [7] > 100 µM | [8] 53.5 µM | [9] > 100 µM | [10] 49.4 µM | [11] > 100 µM | [12] > 100 µM | [13] > 100 µM | [14] > 100 µM | [15] > 100 µM | [16] > 100 µM | [17] > 100 µM

NC(=O)C(=CNC(=S)Nc1ccccc1)C(N)=O
inactive: [1] > 100 µM | [18] 45 µM | [2] > 100 µM | [3] > 100 µM | [4] 64.9 µM | [5] > 100 µM | [6] > 100 µM | [7] > 100 µM | [8] > 100 µM | [9] > 100 µM | [10] > 100 µM | [11] > 100 µM | [12] > 100 µM | [14] > 100 µM | [15] > 100 µM | [16] > 100 µM | [17] > 100 µM

O=C(CSCC(=O)N/N=C\c1ccccc1F)N/N=C\c1ccccc1F
inactive: [1] > 100 µM | [18] > 100 µM | [2] > 100 µM | [3] 64.1 µM | [4] > 100 µM | [5] > 100 µM | [6] > 100 µM | [7] > 100 µM | [8] 41.7 µM | [9] > 100 µM | [10] > 100 µM | [11] > 100 µM | [12] > 100 µM | [13] > 100 µM | [14] 36.3 µM | [17] > 100 µM

CC1(C)OC(=O)C(=Cc2ccc([N+](=O)[O-])s2)C(=O)O1
inactive: [2] 19.2 µM | [3] 16.2 µM | [5] 13.7 µM | [6] 15.6 µM | [8] 15.7 µM | [9] 18.6 µM | [10] 16.9 µM | [11] 16.6 µM | [12] 15.8 µM | [13] 10.8 µM | [19] 13.4 µM | [14] 8.32 µM | [15] 14.9 µM | [17] 12.3 µM
